Our source for the absorption maximum values is the Deep4Chem optical property database.

“And” between values parts separate entries of the source, which are not always exact repeats. Equal entries are not always repeated.

The nature of the data set: solvent given as SMILES.

On to `F[B-]1(F)n2c(-c3cccs3)cc(-c3cccs3)c2N=C2C(c3cccs3)=CC(c3cccs3)=[N+]21`, for which the absorption maximum by setting is: (in C1CCOC1) 740 nm; (in CC#N) 733 nm; (in CS(C)=O) 752 nm; (in Cc1ccccc1) 743 nm; (in ClCCl) 740 nm and 742 nm.
Regarding `CC(C)(C)c1ccc2c(c1)c1ncncc1c1c3ccccc3sc21`, under “in ClCCl”, the absorption maximum turned out to be 377 nm.
`F[B-]1(F)n2c(ccc2-c2ccccc2)C(C(F)(F)F)=C2C=CC(c3ccccc3)=[N+]21` displayed an absorption maximum (in CCCCCC) of 592 nm.
On to `COc1cc(-c2nnc(-c3ccc4ccc5cccc6ccc3c4c56)o2)cc(OC)c1OC`, for which the absorption maximum (in C1CCOC1) worked out at 393 nm; the absorption maximum (in CC1CCCCC1) was determined as 392 nm; the absorption maximum (in CC#N) was 391 nm; the absorption maximum (in CCCCCC) is 392 nm; the absorption maximum (in Cc1ccccc1) is 396 nm; the absorption maximum (in ClC(Cl)Cl) came to 396 nm.
Regarding `O=C1[C@@H]2[C@H](C(=O)N1c1ccc3cc4ccccc4cc3c1)[C@@H]1C=C[C@H]2C1`, where the note is “in ClC(Cl)Cl”, the absorption maximum is 380 nm.
Regarding `CN(C)c1cccc2c1C(=O)c1ccccc1-2`, the absorption maximum was determined as 433 nm (in C1CCCCC1), 444 nm (in CC#N), 449 nm (in CCO) and 445 nm (in c1ccccc1).
With `C=CCNc1ccc2ccc3oc4cc(=[N+](C)C)ccc-4nc3c2c1`, the absorption maximum (in CC#N) was 569 nm, the absorption maximum (in CCO) is on record as 572 nm, the absorption maximum (in ClCCl) was 582 nm and the absorption maximum (in O) was 552 nm.
`COc1ccc(-c2c3ccccc3c3n2[B-](F)(F)[N+]2=Cc4c5ccccc5c(-c5ccc(OC)cc5)n4[B-](F)(F)[N+]2=C3)cc1`: the absorption maximum (in CC#N) was found to be 561 nm; the absorption maximum (in CCCCCC) was found to be 573 nm; the absorption maximum (in CN(C)C=O) was 569 nm; the absorption maximum (in Cc1ccccc1) came out at 579 nm; the absorption maximum (in ClCCl) was found to be 571 nm.
For the compound `CCN(CC)c1ccc2c(-c3ccc(S(=O)(=O)[O-])cc3S(=O)(=O)[O-])c3ccc(=[N+](CC)CC)cc-3oc2c1`, the absorption maximum by setting is: (in CC#N) 548 nm; (in CCO) 552 nm; (in CN(C)C=O) 552 nm; (in O) 562 nm.
On to `COc1ccc2c(c1)c1cc(OC)ccc1n2-c1ccc2c(c1)-c1cc(-n3c4ccc(OC)cc4c4cc(OC)ccc43)ccc1P2(=O)c1ccccc1`, for which, for the setting “in Cc1ccccc1”, the absorption maximum was 369 nm.
Regarding `Cc1cc(O)c(C(=O)/C=C/c2ccccc2Cl)c(=O)o1`, the absorption maximum is, setting by setting: (in CC#N) 353 nm; (in ClCCl) 355 nm.
With `CC1=CC(C)=[N+]2C1=C(c1c(-c3ccccn3)nc3ccccn13)c1c(C)cc(C)n1[B-]2(F)F`, the absorption maximum (in ClCCl) worked out at 518 nm.
Take `COc1ccc(/C=C/C(=O)c2ccccc2O)cc1OC`: the absorption maximum runs as follows: (in C1CCOC1) 350 nm; (in C1COCCO1) 354 nm; (in CC#N) 352 nm; (in CCCO) 360 nm; (in CCO) 359 nm; (in CN(C)C=O) 362 nm. Besides, the absorption maximum is, setting by setting: (in CO) 357 nm; (in CS(C)=O) 365 nm; (in ClC(Cl)Cl) 355 nm; (in ClCCl) 353 nm.
On to `CC(C)(C)c1ccc2c(c1)c1cc(C(C)(C)C)ccc1n2-c1cccs1`, for which, for the setting “in ClCCl”, the absorption maximum amounted to 340 nm.
Compound `O=C(O)c1ccc(-c2nc(-c3ccccc3)c(-c3ccccc3)[nH]2)cc1` displayed an absorption maximum (in CO) of 312 nm.
For the compound `O=C(c1ccc(N2c3ccccc3Sc3ccccc32)cc1)c1ccc2sc3ccccc3c2c1`, the absorption maximum (in C1CCOC1) turned out to be 330 nm.
Regarding `COC(=O)c1ccc(C2=C(/C=C/c3ccc(OC)cc3)O[B-](F)(F)[O+]=C2/C=C/c2ccc(OC)cc2)cc1`, where the note is “in ClCCl”, the absorption maximum is 507 nm.
`COc1ccc(C#Cc2ncc(-c3ccccc3)o2)cc1OC` registered an absorption maximum (in ClCCl) of 330 nm.
Under “in ClC(Cl)Cl”, `CC1=CC(C)=[N+]2C1=C(C1=C3C(C)=CC(C)=[N+]3[B-](F)(F)n3c(C)cc(C)c31)c1c(C)cc(C)n1[B-]2(F)F` gave an absorption maximum of 515 nm.
In turn, `N#Cc1ccc(-n2c(-c3ccc(-c4ccc(N(c5ccccc5)c5ccccc5)cc4)s3)nc3c4ccccc4c4ccccc4c32)c2ccccc12` returned an absorption maximum (in ClCCl) of 308 nm.
Regarding `CC(C)(C)OC(=O)NCC(=O)OCc1ccc2c3cccc4cccc(c5cccc1c52)c43`, where the note is “in CCO”, the absorption maximum is reported as 439 nm.
As to `CCCCCCCCn1cc(-n2c(-c3cc(-c4nc5ccc(C)cc5n4-c4cn(CCCCCCCC)nn4)cc(-c4nc5ccc(C)cc5n4-c4cn(CCCCCCCC)nn4)c3)nc3ccc(C)cc32)nn1`, for the setting “in ClCCl”, the absorption maximum came out at 309.5 nm.
Regarding `CCCCn1c2ccc(-c3ccc4ccccc4c3)cc2c2ccc3c4cc(-c5ccc6ccccc6c5)ccc4n(CCCC)c3c21`, under “in ClC(Cl)Cl”, the absorption maximum amounted to 327 nm.
Still for that read-out and setting: with `N=c1oc2cccc3c4c(-c5ccccc5)oc5cccc(c(c1-c1ccccc1)c23)c54` the figure was 397 nm.
Where the note is “in CC#N”, `COc1ccc(-c2nc3c([nH]2)C2=CC(=O)S[C@]2(C)[C@@]2(C)SC(=O)C=C32)cc1` gave an absorption maximum of 392 nm.
On the same count and under the same terms, with `CCCn1c2cccc3oc4cccc5c4[c+](c32)c2c1cccc2n5CCC` the figure was 557 nm.
`Clc1ccc(/C=C/c2ccncn2)cc1` showed an absorption maximum (in ClCCl) of 310 nm.
Consider `C1=[N+](c2ccccc2)[B-](c2ccccc2)(c2ccccc2)Oc2c1ccc1c3c(ccc21)C=[N+](c1ccccc1)[B-](c1ccccc1)(c1ccccc1)O3`, for which the absorption maximum is, setting by setting: (in Cc1ccccc1) 536 nm; (in ClCCl) 529 nm.
For the compound `C[N+]1=C(/C=C/C2=C3Oc4c(cc5c6c4CCCN6CCC5)C(c4ccccc4C(=O)O)=C3CCC2)C(C)(C)c2ccccc21`, the absorption maximum by setting is: (in CC#N) 724 nm; (in CCO) 710 nm; (in CO) 714 nm; (in ClC(Cl)Cl) 730 nm.
For `CCCCOc1c(C=C2Sc3ccccc3N2C)c(=O)c1=O`, the absorption maximum (in CCO) stood at 442 nm.
As for `CCn1c(-c2ccc(N(c3ccccc3)c3cccc4ccccc34)cc2)c(-c2ccc3ccccc3c2)c(-c2ccc3ccccc3c2)c1-c1ccc(N(c2ccccc2)c2cccc3ccccc23)cc1`, the absorption maximum (in CCOC(C)=O) was determined as 296 nm.
In the case of `c1ccc(-c2nc(-c3ccccc3)nc(-c3ccc(-n4c5ccccc5c5ccc6c(c7ccccc7n6-c6ccccc6)c54)cc3)n2)cc1`, the absorption maximum (in Cc1ccccc1) turned out to be 360 nm.
In the case of `CC(=O)c1ccc(-c2cccc3ncc(-c4ccccc4)n23)cc1`, the absorption maximum (in ClCCl) is reported as 358 nm.
Regarding `CC(C)(C)c1cc(-c2ccc(-c3cccs3)s2)c2c(c1)c1cc(C(C)(C)C)cc(-c3ccc(-c4cccs4)s3)c1n2-c1ccc(-c2cccs2)s1`, under “in ClCCl”, the absorption maximum was 340 nm.
`CN(C)c1ccc(-c2ccc(-c3cc(-c4ccccc4)c(-c4ccccc4)c(-c4ccccc4)c3-c3ccccc3)cc2)cc1`: the absorption maximum (in ClC(Cl)Cl) is 323 nm.
Turning to `C(#Cc1ccccc1C#Cc1ccccc1)c1ccccc1`, the absorption maximum (in CC#N) amounted to 310 nm.
Take `c1ccc2c(c1)c1ccccc1n2-c1ccc(-c2nnc(-c3ccc(-n4c5ccccc5c5ccccc54)cc3)o2)cc1`: the absorption maximum (in Cc1ccccc1) is reported as 343 nm.
As for `CCCCCCCN1C(=CC2=C([O-])C(=CC3=[N+](CCCCCCC)c4ccccc4C3(C)C)C2=C(C#N)C#N)C(C)(C)c2ccccc21`, the absorption maximum by setting is: (in C1COCCO1) 689 nm; (in CCO) 673 nm; (in CN(C)C=O) 681 nm; (in ClC(Cl)Cl) 685 nm.
Compound `CCCCCCCCCCCCn1cccc1/C=C/c1ccc(/C=C/c2cccn2CCCCCCCCCCCC)cc1` registered an absorption maximum (in Cc1ccccc1) of 398 nm.
As to `CC1=CC(C)=[N+]2C1=Cc1c(C)cc(C)n1[B-]2(F)F`, the absorption maximum is, setting by setting: (in CCCCCC) 508 nm; (in CO) 503 nm; (in ClCCl) 506 nm.
As to `CC[n+]1c(/C=C/c2c([O-])ccc3ccc(=O)oc23)sc2ccccc21`, the absorption maximum was found to be 607.14 nm (in C1CCOC1); 579.15 nm (in CC#N); 590.56 nm (in CC(C)=O); 519.07 nm (in CO); 581.28 nm (in CS(C)=O); 623.57 nm (in Cc1ccccc1). The absorption maximum is, setting by setting: (in ClC(Cl)Cl) 593.91 nm; (in ClCCl) 597.56 nm; (in O) 492.76 nm.
`CCNc1ccc2c(c1)C(C)(C)C(=O)C=C2`: under “in O”, the absorption maximum came to 402 nm.
Still for that read-out and setting: with `CC[n+]1nc2ccc(N(C)C)cc2c2cc(C)ccc21` the figure was 483 nm.
For `CCn1c2ccccc2c2cc(C#Cc3cc(C#Cc4ccc5c(c4)c4ccccc4n5CC)nc(N4CCCCC4)n3)ccc21`, the absorption maximum is 393 nm (in C1CCOC1); 391 nm (in CCOC(C)=O); 398 nm (in CN(C)C=O); 395 nm (in Cc1ccccc1); 397 nm (in ClCCl).
Under “in ClCCl”, `N#Cc1ccc(C2=Cc3cc4ccccc4cc3P2(=O)c2ccccc2)cc1` (stereo not drawn) displayed an absorption maximum of 391 nm.
`COC(=O)/C(C#N)=C/c1cn(-c2ccccc2)nc1-c1ccc([N+](=O)[O-])cc1` gave an absorption maximum (in C1CCOC1) of 333 nm; an absorption maximum (in C1COCCO1) of 333 nm; an absorption maximum (in CCO) of 335 nm; an absorption maximum (in CCOC(C)=O) of 330 nm; an absorption maximum (in CN(C)C=O) of 330 nm; an absorption maximum (in CO) of 330 nm. The same compound had an absorption maximum (in CS(C)=O) of 330 nm, an absorption maximum (in Cc1ccccc1) of 347 nm and an absorption maximum (in ClC(Cl)Cl) of 339 nm.
For `O=C1c2cc(F)ccc2-c2cnccc21`, the absorption maximum (in CC#N) turned out to be 408.61 nm and the absorption maximum (in CCCCCC) turned out to be 408.61 nm.
On to `CCOc1ccc(/C=C/C=C/C=C/c2ccc([N+](=O)[O-])cc2)cc1`, for which the absorption maximum runs as follows: (in CC1CCCCC1) 414 nm; (in CC#N) 412 nm; (in Cc1ccccc1) 419 nm; (in ClCCl) 420 nm.
